Tested on: CT26 colorectal carcinoma murine model
Settings: mouse, in vivo
Protocol: Efficacy was tested in murine model (BSPN02). CT26 colorectal cell lines in a murine model were chosen to conduct toxicity and safety studies in-vivo. The safety profile of Biomaterial-5-FU was compared with other control groups, and five aspects were evaluated as follows: (i) change in the body weight over time, (ii) organ weight and the ratio of organ to body weight, (iii) Hematoxylin-Eosin (H & E) staining for histological changes, (iv) a hepatic function panel, and (v) blood chemistry to assess impact on bone marrow. For H & E staining, five major organs (liver, heart, spleen, lungs, and kidneys) were collected from the mice at each time point. […] This toxic effect was not observed in mice treated with Biomaterial-5-FU. […] This toxic effect was not observed in mice treated with Biomaterial-5-FU.

O=c1[nH]cc(F)c(=O)[nH]1 [IV 5-FU, 5-fluoro-1H-pyrimidine-2,4-dione]
toxic effect: absolute numbers of white blood cells: reduction in the absolute numbers of white blood cells
toxic effect: number of monocytes and other leukocytes (bone marrow suppression): reduction in the number of monocytes and other leukocytes

From US20250177290A1, “DRUG-ELUTING SURGICAL ARTICLES AND METHODS OF USE THEREOF” (BIOSAPIEN INC., priority 2022, published 2025)
